Measured values reported in ChEMBL document CHEMBL2203195, “Synthesis and antibacterial activity of new fluoroquinolones containing a cis- or trans-cyclohexane moiety” (2012).
≈ marks a conversion by molar mass, not a printed value.

Key:
Type in all cases: functional
[1] = system: Pseudomonas aeruginosa; assay: Antibacterial activity against Pseudomonas aeruginosa CMCC 10104 after 24 hrs by agar dilution method; conditions: CMCC 10104, 24 h
[2] = system: Escherichia coli; assay: Antibacterial activity against Escherichia coli CMCC 44103 after 24 hrs by agar dilution method; conditions: CMCC 44103, 24 h
[3] = system: Staphylococcus aureus; assay: Antibacterial activity against Staphylococcus aureus CMCC 26003 after 24 hrs by agar dilution method; conditions: CMCC 26003, 24 h

Row | Compound | MIC [1] | MIC [2] | MIC [3]
1 | COc1c(NC(=O)[C@H]2CC[C@@H](COc3c(C)cccc3C)CC2)c(F)cc2c(=O)c(C(=O)O)cn(C3CC3)c12 | > 32 µg/mL | > 32 µg/mL | > 32 µg/mL
2 | COc1c(NC(=O)[C@H]2CC[C@H](COc3c(C)cccc3C)CC2)c(F)cc2c(=O)c(C(=O)O)cn(C3CC3)c12 | > 32 µg/mL | > 32 µg/mL | > 32 µg/mL
3 | C[C@H]1COc2c(NC(=O)[C@H]3CC[C@@H](COc4ccc([N+](=O)[O-])cc4)CC3)c(F)cc3c(=O)c(C(=O)O)cn1c23 | > 32 µg/mL | > 32 µg/mL | > 32 µg/mL
4 | C[C@H]1COc2c(NC(=O)[C@H]3CC[C@H](COc4cccc(F)c4F)CC3)c(F)cc3c(=O)c(C(=O)O)cn1c23 | > 32 µg/mL | > 32 µg/mL | 32 µg/mL (≈ 60.3 µM)
5 | COc1c(NC(=O)[C@H]2CC[C@@H](COc3cccc(F)c3F)CC2)c(F)cc2c(=O)c(C(=O)O)cn(C3CC3)c12 | > 32 µg/mL | > 32 µg/mL | > 32 µg/mL
6 | CCn1cc(C(=O)O)c(=O)c2cc(F)c(NC(=O)[C@H]3CC[C@@H](COc4ccc([N+](=O)[O-])cc4)CC3)c(F)c21 | > 32 µg/mL | > 32 µg/mL | 4 µg/mL (≈ 7.55 µM)
7 | COc1c(NC(=O)[C@H]2CC[C@H](COc3ccc([N+](=O)[O-])cc3)CC2)c(F)cc2c(=O)c(C(=O)O)cn(C3CC3)c12 | > 32 µg/mL | > 32 µg/mL | > 32 µg/mL
8 | CCn1cc(C(=O)O)c(=O)c2cc(F)c(NC(=O)[C@H]3CC[C@H](COc4cccc(F)c4F)CC3)c(F)c21 | > 32 µg/mL | > 32 µg/mL | > 32 µg/mL
9 | COc1c(NC(=O)[C@H]2CC[C@@H](COc3ccc([N+](=O)[O-])cc3)CC2)c(F)cc2c(=O)c(C(=O)O)cn(C3CC3)c12 | 2 µg/mL (≈ 3.61 µM) | 0.25 µg/mL (≈ 0.452 µM) | 1 µg/mL (≈ 1.81 µM)
10 | C[C@H]1COc2c(NC(=O)[C@H]3CC[C@@H](COc4cccc(F)c4F)CC3)c(F)cc3c(=O)c(C(=O)O)cn1c23 | 1 µg/mL (≈ 1.89 µM) | > 32 µg/mL | 2 µg/mL (≈ 3.77 µM)
11 | CCn1cc(C(=O)O)c(=O)c2cc(F)c(N3CCNC(C)C3)c(F)c21 (stereo not given) [LOMEFLOXACIN] | 8 µg/mL (≈ 22.8 µM) | 2 µg/mL (≈ 5.69 µM) | 4 µg/mL (≈ 11.4 µM)
12 | CCn1cc(C(=O)O)c(=O)c2cc(F)c(NC(=O)[C@H]3CC[C@@H](COc4cccc(F)c4F)CC3)c(F)c21 | > 32 µg/mL | > 32 µg/mL | > 32 µg/mL
13 | Cc1cccc(C)c1OC[C@H]1CC[C@@H](C(=O)Nc2c(F)cc3c(=O)c(C(=O)O)cn4c3c2OC[C@@H]4C)CC1 | > 32 µg/mL | > 32 µg/mL | > 32 µg/mL
14 | CCn1cc(C(=O)O)c(=O)c2cc(F)c(NC(=O)[C@H]3CC[C@@H](COc4ccccc4)CC3)c(F)c21 | > 32 µg/mL | > 32 µg/mL | > 32 µg/mL

Further lines, results first:

Row | MIC [1] | MIC [2] | MIC [3] | Compound
15 | > 32 µg/mL | > 32 µg/mL | > 32 µg/mL | CCn1cc(C(=O)O)c(=O)c2cc(F)c(NC(=O)[C@H]3CC[C@H](COc4c(C)cccc4C)CC3)c(F)c21
16 | > 32 µg/mL | > 32 µg/mL | > 32 µg/mL | CCn1cc(C(=O)O)c(=O)c2cc(F)c(NC(=O)[C@H]3CC[C@H](COc4ccc([N+](=O)[O-])cc4)CC3)c(F)c21
17 | > 32 µg/mL | 8 µg/mL (≈ 16.2 µM) | > 32 µg/mL | C[C@H]1COc2c(NC(=O)[C@H]3CC[C@@H](COc4ccccc4)CC3)c(F)cc3c(=O)c(C(=O)O)cn1c23
18 | > 32 µg/mL | > 32 µg/mL | > 32 µg/mL | COc1c(NC(=O)[C@H]2CC[C@H](COc3ccccc3)CC2)c(F)cc2c(=O)c(C(=O)O)cn(C3CC3)c12
19 | > 32 µg/mL | > 32 µg/mL | > 32 µg/mL | C[C@H]1COc2c(NC(=O)[C@H]3CC[C@H](COc4ccc([N+](=O)[O-])cc4)CC3)c(F)cc3c(=O)c(C(=O)O)cn1c23
20 | > 32 µg/mL | 16 µg/mL (≈ 32.4 µM) | > 32 µg/mL | C[C@H]1COc2c(NC(=O)[C@H]3CC[C@H](COc4ccccc4)CC3)c(F)cc3c(=O)c(C(=O)O)cn1c23
21 | > 32 µg/mL | > 32 µg/mL | > 32 µg/mL | CCn1cc(C(=O)O)c(=O)c2cc(F)c(NC(=O)[C@H]3CC[C@H](COc4ccccc4)CC3)c(F)c21
22 | > 32 µg/mL | > 32 µg/mL | > 32 µg/mL | COc1c(NC(=O)[C@H]2CC[C@H](COc3cccc(F)c3F)CC2)c(F)cc2c(=O)c(C(=O)O)cn(C3CC3)c12
23 | > 32 µg/mL | > 32 µg/mL | 4 µg/mL (≈ 7.87 µM) | COc1c(NC(=O)[C@H]2CC[C@@H](COc3ccccc3)CC2)c(F)cc2c(=O)c(C(=O)O)cn(C3CC3)c12
24 | > 32 µg/mL | > 32 µg/mL | > 32 µg/mL | CCn1cc(C(=O)O)c(=O)c2cc(F)c(NC(=O)[C@H]3CC[C@@H](COc4c(C)cccc4C)CC3)c(F)c21
25 | > 32 µg/mL | > 32 µg/mL | > 32 µg/mL | Cc1cccc(C)c1OC[C@H]1CC[C@H](C(=O)Nc2c(F)cc3c(=O)c(C(=O)O)cn4c3c2OC[C@@H]4C)CC1
